Data reported in ChEMBL document CHEMBL1158459, “Discovery of a peroxisome proliferator activated receptor gamma (PPARgamma) modulator with balanced PPARalpha activity for the treatment of type 2 diabetes and dyslipidemia” (J Med Chem, 2009).
Calls of active or inactive are those of the source. The rule behind the calls is not given here.

Columns and labels:
Mus musculus [1] = assay: Antidiabetic activity in C57BLKS/J-m+/+Leprdb db/db mouse assessed as reduction in plasma triglyceride levels at 1 mg/kg, po once daily for 11 days relative to control; format: functional; design: scale not given: the % may be the effect or the level left
Mus musculus [2] = assay: Antidiabetic activity in ob/ob mouse assessed as reduction in plasma triglyceride levels at 3 mg/kg, po once daily for 5 days relative to control; format: functional; design: scale not given: the % may be the effect or the level left
Mus musculus [3] = assay: Antidiabetic activity in ob/ob mouse assessed as reduction in plasma glucose levels at 3 mg/kg, po once daily for 5 days relative to control; format: functional; design: scale not given: the % may be the effect or the level left
Mus musculus [4] = assay: Antidiabetic activity in ob/ob mouse assessed as reduction in plasma glucose levels at 10 mg/kg, po once daily for 5 days relative to control; format: functional; design: scale not given: the % may be the effect or the level left
Mus musculus [5] = assay: Antidiabetic activity in ob/ob mouse assessed as insulin correction at 3 mg/kg, po once daily for 5 days relative to control; format: functional
[6] = Cmax in C57BLKS/J-m+/+Leprdb db/db mouse at 1 mg/kg, po once daily for 11 days; format: ADME, organism-based; design: dose 1 mg/kg, route oral; details: in vivo
[7] = Cmax in C57BLKS/J-m+/+Leprdb db/db mouse at 3 mg/kg, po once daily for 11 days; format: ADME, organism-based; design: dose 3 mg/kg, route oral; details: in vivo
[8] = Cmax in C57BLKS/J-m+/+Leprdb db/db mouse at 10 mg/kg, po once daily for 11 days; format: ADME, organism-based; design: dose 10 mg/kg, route oral; details: in vivo
[9] = AUC in C57BLKS/J-m+/+Leprdb db/db mouse at 3 mg/kg, po once daily for 11 days; format: ADME, organism-based; design: dose 3 mg/kg, route oral; details: plasma
[10] = AUC in C57BLKS/J-m+/+Leprdb db/db mouse at 10 mg/kg, po once daily for 11 days; format: ADME, organism-based; design: dose 10 mg/kg, route oral; details: plasma
Mus musculus [11] = assay: Antidiabetic activity in high fat diet-fed streptozotocin-treated mouse assessed as reduction in plasma glucose levels at 30 mg/kg, po once daily for 12 days relative to control; format: functional; design: scale not given: the % may be the effect or the level left
[12] = AUC in high fat diet-fed streptozotocin-treated mouse at 5 mg/kg, po once daily for 12 days; format: ADME, organism-based; design: dose 5 mg/kg, route oral; details: plasma
Rattus norvegicus [13] = assay: Antidiabetic activity in Zucker fa/fa rat assessed as decrease in free fatty acid levels at 0.3 mg/kg, po once daily for 7 days; format: functional, organism-based; design: dose 0.3 mg/kg
Rattus norvegicus [14] = assay: Antidiabetic activity in Zucker fa/fa rat assessed as decrease in free fatty acid levels at 15 mg/kg, po once daily for 7 days; format: functional, organism-based; design: dose 15 mg/kg
Rattus norvegicus [15] = assay: Antidiabetic activity in Zucker fa/fa rat assessed as decrease in free fatty acid levels at 1 mg/kg, po once daily for 7 days; format: functional, organism-based; design: dose 1 mg/kg
Rattus norvegicus [16] = assay: Antidiabetic activity in Zucker fa/fa rat assessed as decrease in triglyceride levels at 3 mg/kg, po once daily for 7 days; format: functional, organism-based; design: dose 3 mg/kg
Rattus norvegicus [17] = assay: Antidiabetic activity in Zucker fa/fa rat assessed as decrease in triglyceride levels at 15 mg/kg, po once daily for 7 days; format: functional, organism-based; design: dose 15 mg/kg
Rattus norvegicus [18] = assay: Toxicity in Zucker fa/fa rat assessed as increase in plasma volume at 10 mg/kg, po treated once daily for 7 days; details: in vivo, 168 h
Rattus norvegicus [19] = assay: Toxicity in Zucker fa/fa rat assessed as increase in heart weight at 10 mg/kg, po treated once daily for 7 days; format: organism-based; design: dose 10 mg/kg, route oral; details: in vivo, 168 h
Syrian golden hamster [20] = assay: Antidiabetic activity in Syrian golden hamster assessed as reduction in cholesterol level at 0.3 mg/kg, po once daily for 9 days relative to control; format: functional, Mesocricetus auratus; design: scale not given: the % may be the effect or the level left
Syrian golden hamster [21] = assay: Antidiabetic activity in Syrian golden hamster assessed as reduction in triglyceride level at 3 mg/kg, po once daily for 9 days relative to control; format: functional, Mesocricetus auratus; design: scale not given: the % may be the effect or the level left
[22] = Cmax in Syrian golden hamster at 3 mg/kg, po once daily for 9 days; format: ADME, organism-based, Mesocricetus auratus; design: dose 3 mg/kg, route oral; details: in vivo
[23] = AUC in Syrian golden hamster at 0.3 mg/kg, po once daily for 9 days; format: ADME, organism-based, Mesocricetus auratus; design: dose 0.3 mg/kg, route oral; details: plasma
[24] = Cmax in Beagle dog at 1 mg/kg, po once daily for 14 days; format: ADME, organism-based, Canis lupus familiaris; design: dose 1 mg/kg, route oral; details: in vivo
[25] = Cmax in Beagle dog at 3 mg/kg, po once daily for 14 days; format: ADME, organism-based, Canis lupus familiaris; design: dose 3 mg/kg, route oral; details: in vivo
[26] = AUC in Beagle dog at 1 mg/kg, po once daily for 14 days; format: ADME, organism-based, Canis lupus familiaris; design: dose 1 mg/kg, route oral; details: plasma
Rattus norvegicus [27] = assay: Toxicity in Sprague-Dawley rat assessed as increase in brown adipose tissue weight at 60 mg/kg, po once daily for 14 days; format: organism-based; design: dose 60 mg/kg, route oral; details: in vivo, 336 h
Rattus norvegicus [28] = assay: Toxicity in Sprague-Dawley rat assessed as increase albumin/globulin levels at 60 mg/kg, po once daily for 14 days; format: organism-based; design: dose 60 mg/kg, route oral; details: in vivo, 336 h
[29] = AUC in rat at 2 mg/kg, po; format: ADME, organism-based, Plasma; design: dose 2 mg/kg, route oral; details: plasma
[30] = biological target: T1, Peroxisome proliferator-activated receptor alpha (Mus musculus, UniProt P23204); assay: Agonist activity at mouse PPARalpha receptor expressed in african green monkey COS1 cells co-transfected with fused yeast Gal4-DBD by transactivation assay; format: functional, cell-based, COS-1
T1 sequence (P23204 whole entry): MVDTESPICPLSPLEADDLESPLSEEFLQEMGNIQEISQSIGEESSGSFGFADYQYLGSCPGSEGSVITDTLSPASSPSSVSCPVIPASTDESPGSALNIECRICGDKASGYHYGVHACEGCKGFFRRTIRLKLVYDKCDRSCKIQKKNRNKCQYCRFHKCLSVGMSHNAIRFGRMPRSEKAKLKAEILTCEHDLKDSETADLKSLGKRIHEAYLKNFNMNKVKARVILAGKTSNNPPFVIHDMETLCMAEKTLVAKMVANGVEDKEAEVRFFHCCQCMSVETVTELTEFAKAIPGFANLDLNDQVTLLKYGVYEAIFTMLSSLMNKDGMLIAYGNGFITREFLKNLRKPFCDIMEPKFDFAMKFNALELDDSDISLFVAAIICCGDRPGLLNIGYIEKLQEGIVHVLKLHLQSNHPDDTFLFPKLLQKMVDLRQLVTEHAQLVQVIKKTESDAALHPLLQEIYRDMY

Mus musculus [31] = assay: Antidiabetic activity in C57BLKS/J-m+/+Leprdb db/db mouse assessed as reduction in plasma glucose levels at 10 mg/kg, po once daily for 11 days relative to control; format: functional; design: scale not given: the % may be the effect or the level left
[32] = biological target: Oxysterols receptor LXR-beta (Homo sapiens) (UniProt P55055); assay: Binding affinity to LXRbeta up to 10 uM
Chain of Oxysterols receptor LXR-beta (Homo sapiens) (P55055 whole entry): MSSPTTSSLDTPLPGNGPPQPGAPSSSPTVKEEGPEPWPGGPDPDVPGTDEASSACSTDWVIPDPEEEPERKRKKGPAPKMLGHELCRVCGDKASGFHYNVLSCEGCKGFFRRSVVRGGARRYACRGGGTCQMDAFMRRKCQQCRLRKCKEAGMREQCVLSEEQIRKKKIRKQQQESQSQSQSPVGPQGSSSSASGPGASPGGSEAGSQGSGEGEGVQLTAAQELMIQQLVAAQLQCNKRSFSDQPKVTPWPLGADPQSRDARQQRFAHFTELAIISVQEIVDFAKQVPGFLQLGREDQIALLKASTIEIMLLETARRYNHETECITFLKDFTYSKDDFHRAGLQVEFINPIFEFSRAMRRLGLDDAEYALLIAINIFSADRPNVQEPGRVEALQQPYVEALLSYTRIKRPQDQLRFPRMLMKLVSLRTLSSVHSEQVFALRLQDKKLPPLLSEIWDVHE

[33] = biological target: Glucocorticoid receptor (Homo sapiens) (UniProt P04150); assay: Binding affinity to GR up to 10 uM
Chain of Glucocorticoid receptor (Homo sapiens) (P04150 whole entry): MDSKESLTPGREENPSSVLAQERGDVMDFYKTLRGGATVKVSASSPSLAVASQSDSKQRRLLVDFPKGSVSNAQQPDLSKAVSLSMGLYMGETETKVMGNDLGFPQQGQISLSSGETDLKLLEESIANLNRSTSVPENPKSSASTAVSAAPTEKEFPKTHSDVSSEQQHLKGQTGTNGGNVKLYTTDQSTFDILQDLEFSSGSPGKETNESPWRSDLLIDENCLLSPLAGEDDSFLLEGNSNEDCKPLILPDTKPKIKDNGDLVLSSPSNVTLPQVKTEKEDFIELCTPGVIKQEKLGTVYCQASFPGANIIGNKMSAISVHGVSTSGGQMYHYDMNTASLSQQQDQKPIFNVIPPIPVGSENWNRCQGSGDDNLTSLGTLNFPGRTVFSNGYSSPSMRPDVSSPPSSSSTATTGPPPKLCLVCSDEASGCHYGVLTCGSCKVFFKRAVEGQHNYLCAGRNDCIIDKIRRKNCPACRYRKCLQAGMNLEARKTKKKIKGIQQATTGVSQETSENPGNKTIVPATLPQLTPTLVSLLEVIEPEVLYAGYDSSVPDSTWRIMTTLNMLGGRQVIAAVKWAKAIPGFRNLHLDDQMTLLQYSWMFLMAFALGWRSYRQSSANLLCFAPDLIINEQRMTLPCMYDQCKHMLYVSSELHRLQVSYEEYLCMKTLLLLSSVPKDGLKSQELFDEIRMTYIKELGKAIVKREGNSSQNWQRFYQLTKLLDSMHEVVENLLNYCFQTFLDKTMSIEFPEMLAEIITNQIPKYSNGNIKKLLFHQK

[34] = biological target: Thyroid hormone receptor alpha (Homo sapiens) (UniProt P10827); assay: Binding affinity to TRalpha up to 10 uM
Chain of Thyroid hormone receptor alpha (Homo sapiens) (P10827 whole entry): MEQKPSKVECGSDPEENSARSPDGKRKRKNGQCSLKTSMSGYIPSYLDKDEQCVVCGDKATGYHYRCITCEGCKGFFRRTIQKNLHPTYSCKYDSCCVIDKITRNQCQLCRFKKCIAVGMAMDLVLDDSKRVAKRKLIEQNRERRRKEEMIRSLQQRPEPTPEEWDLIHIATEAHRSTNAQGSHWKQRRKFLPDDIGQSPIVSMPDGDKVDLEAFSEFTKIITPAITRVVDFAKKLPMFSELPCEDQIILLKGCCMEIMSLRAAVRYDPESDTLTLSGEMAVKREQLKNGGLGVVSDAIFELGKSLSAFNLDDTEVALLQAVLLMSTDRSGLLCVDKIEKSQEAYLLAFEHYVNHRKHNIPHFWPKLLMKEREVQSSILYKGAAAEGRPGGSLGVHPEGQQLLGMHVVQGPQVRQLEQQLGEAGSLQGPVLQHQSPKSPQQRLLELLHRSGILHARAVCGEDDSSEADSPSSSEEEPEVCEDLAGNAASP

[35] = biological target: Oxysterols receptor LXR-alpha (Homo sapiens) (UniProt Q13133); assay: Activity at LXRalpha receptor up to 10 uM by transactivation assay
Chain of Oxysterols receptor LXR-alpha (Homo sapiens) (Q13133 whole entry): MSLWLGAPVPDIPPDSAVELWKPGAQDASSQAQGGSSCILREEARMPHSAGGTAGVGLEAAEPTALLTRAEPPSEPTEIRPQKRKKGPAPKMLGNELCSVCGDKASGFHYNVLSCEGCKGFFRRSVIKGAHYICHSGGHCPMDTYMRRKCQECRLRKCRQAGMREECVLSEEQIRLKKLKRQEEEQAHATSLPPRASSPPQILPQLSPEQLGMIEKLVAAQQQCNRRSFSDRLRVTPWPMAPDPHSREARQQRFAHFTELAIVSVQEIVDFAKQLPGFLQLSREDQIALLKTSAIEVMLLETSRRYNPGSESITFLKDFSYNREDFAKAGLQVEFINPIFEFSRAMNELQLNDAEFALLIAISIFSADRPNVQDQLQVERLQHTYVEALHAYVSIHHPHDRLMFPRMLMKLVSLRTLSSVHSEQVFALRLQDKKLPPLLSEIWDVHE

[36] = biological target: Oxysterols receptor LXR-beta (Homo sapiens) (UniProt P55055); assay: Activity at LXRbeta receptor up to 10 uM by transactivation assay
[37] = biological target: Glucocorticoid receptor (Homo sapiens) (UniProt P04150); assay: Activity at GR receptor up to 10 uM by transactivation assay
[38] = biological target: Estrogen receptor (Homo sapiens) (UniProt P03372); assay: Activity at ERalpha receptor up to 10 uM by transactivation assay
Chain of Estrogen receptor (Homo sapiens) (P03372 whole entry): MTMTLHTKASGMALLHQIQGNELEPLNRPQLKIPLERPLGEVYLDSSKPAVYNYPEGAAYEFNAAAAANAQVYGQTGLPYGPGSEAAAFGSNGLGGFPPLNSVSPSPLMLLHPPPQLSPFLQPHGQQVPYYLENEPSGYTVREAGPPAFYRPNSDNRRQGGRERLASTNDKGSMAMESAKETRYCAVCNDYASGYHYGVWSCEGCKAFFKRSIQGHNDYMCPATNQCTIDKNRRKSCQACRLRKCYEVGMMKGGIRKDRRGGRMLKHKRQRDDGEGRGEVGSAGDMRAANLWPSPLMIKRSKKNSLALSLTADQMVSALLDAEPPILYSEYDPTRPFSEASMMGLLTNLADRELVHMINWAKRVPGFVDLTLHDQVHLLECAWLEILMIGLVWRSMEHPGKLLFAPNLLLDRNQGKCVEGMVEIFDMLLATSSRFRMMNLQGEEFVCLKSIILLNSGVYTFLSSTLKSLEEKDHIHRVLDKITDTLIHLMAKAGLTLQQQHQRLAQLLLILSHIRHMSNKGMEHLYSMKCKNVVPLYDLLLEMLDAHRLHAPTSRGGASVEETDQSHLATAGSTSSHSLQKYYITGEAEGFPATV

[39] = biological target: Estrogen receptor beta (Homo sapiens) (UniProt Q92731); assay: Activity at ERbeta receptor up to 10 uM by transactivation assay
Chain of Estrogen receptor beta (Homo sapiens) (Q92731 whole entry): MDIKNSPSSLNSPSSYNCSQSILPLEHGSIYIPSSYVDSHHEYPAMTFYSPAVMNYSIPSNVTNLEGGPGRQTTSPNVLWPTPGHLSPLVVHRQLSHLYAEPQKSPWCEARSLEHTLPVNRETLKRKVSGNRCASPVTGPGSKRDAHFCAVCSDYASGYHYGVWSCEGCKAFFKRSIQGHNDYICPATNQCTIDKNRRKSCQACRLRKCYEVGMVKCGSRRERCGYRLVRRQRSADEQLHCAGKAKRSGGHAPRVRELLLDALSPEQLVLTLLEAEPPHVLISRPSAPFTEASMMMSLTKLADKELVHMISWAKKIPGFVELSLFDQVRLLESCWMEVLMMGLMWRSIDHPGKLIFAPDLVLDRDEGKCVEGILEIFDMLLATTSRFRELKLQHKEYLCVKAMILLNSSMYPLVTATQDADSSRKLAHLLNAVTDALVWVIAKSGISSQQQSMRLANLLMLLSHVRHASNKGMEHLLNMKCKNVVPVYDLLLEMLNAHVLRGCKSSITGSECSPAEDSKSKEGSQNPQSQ

[40] = biological target: Thyroid hormone receptor beta (Homo sapiens) (UniProt P10828); assay: Activity at TRbeta receptor up to 10 uM by transactivation assay
Chain of Thyroid hormone receptor beta (Homo sapiens) (P10828 whole entry): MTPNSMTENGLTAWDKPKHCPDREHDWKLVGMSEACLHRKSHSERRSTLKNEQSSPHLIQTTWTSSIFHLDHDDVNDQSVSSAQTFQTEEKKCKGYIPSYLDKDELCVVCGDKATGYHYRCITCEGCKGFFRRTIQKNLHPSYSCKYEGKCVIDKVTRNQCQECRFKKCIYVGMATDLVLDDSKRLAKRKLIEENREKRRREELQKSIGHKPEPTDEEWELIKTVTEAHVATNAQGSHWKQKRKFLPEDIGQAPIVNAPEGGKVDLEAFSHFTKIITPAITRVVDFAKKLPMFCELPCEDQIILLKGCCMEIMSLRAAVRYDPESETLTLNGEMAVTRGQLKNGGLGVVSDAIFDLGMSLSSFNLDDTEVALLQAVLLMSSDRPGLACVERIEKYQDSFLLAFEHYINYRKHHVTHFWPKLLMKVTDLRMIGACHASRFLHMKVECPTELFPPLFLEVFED

For `CC[C@@H](Oc1cccc(Cn2c(C)c(C(=O)c3ccc(Cl)cc3)c3ccc(OC(F)(F)F)cc32)c1)C(=O)O`, the Activity (Mus musculus [1]) was 75%, the Activity (Mus musculus [2]) was 27% and the Activity (Mus musculus [3]) was 21%. The Activity (Mus musculus [4]) was 34%, the Activity (Mus musculus [5]) was 67% and the Cmax [6] was 1.5 µM. For the same compound, the Cmax [7] was 5.4 µM, the Cmax [8] was 9.6 µM and the AUC at 264 h [9] was 6.4 µM·h. It also gave an AUC at 264 h [10] of 9.6 µM·h, an Activity (Mus musculus [11]) of 103% and an AUC at 288 h [12] of 2.7 µM·h. The Activity (Rattus norvegicus [13]) was “Active”, the Activity (Rattus norvegicus [14]) was “Active” and the Activity (Rattus norvegicus [15]) was “Active”. The Activity (Rattus norvegicus [16]) was “Active”, the Activity (Rattus norvegicus [17]) was “Active” and the Activity (Rattus norvegicus [18]) was “Toxic”. For the same compound, the Activity (Rattus norvegicus [19]) was “Toxic”, the Activity (Syrian golden hamster [20]) was 21.9% and the Activity (Syrian golden hamster [21]) was 56.9%. The Cmax [22] was 0.6 µM, the AUC at 216 h [23] was 0.13 µM·h and the Cmax [24] was 1.03 µM. The Cmax [25] was 18.6 µM, the AUC at 336 h [26] was 5.41 µM·h and the Activity (Rattus norvegicus [27]) was 32%. For the same compound, the Activity (Rattus norvegicus [28]) was 45%, the AUC [29] was 1.5 µM·h and the EC50 [30] was 120 nM. The Activity (Mus musculus [31]) was 101%, the Activity [32] was “inactive” and the Activity [33] was “inactive”. The Activity [34] was “inactive”, the Activity [35] was “inactive” and the Activity [36] was “inactive”. The Activity [37] was “inactive”, the Activity [38] was “inactive” and the Activity [39] was “inactive”. For the same compound, the Activity [40] was “inactive”.
